The text below walks through data of paper PMC10835127, “Viruses traverse the human proteome through peptide interfaces that can be biomimetically leveraged for drug discovery” (Proceedings of the National Academy of Sciences of the …, 2024).

Data set [1] in a line: PK parameters in mice. It counts as in vivo, male Swiss (CD-1) mice. Particulars: mouse. As for the experimental part:
PK parameters and tissue distribution in mice
The pharmacokinetic profiles of the tested compounds were evaluated in male Swiss (CD-1) mice around 5-6 weeks old (3 animals per sampling time). […]
0.2 % Tween 80 in water. Blood samples were collected (0.25 mL) from the sinus retro-orbital […]
24 hr for p.o. route. The blood samples were immediately centrifuged at 2500 rpm at +4 °C, and the plasma was stored at −80 °C. 50 μL of plasma sample was taken and 150 μL of acetonitrile was added. After protein precipitation, analysis of the molecule was performed using LC-MS/MS to determine plasma compound concentration. For liver and lung collection, 3 animals per group were involved and sampled after 2 hr and 24 hr upon 20 mg/kg p.o. administration. Animals were perfused with around 10 mL of saline solution directly into the heart to extract the maximal blood sample from the liver and the lung. Animals were then sacrificed by cervical dislocation and liver

Data set [2] can be described thus: Cryopreserved hepatocyte stability, mouse. It counts as in vitro ADME. Particulars: cryopreserved hepatocytes, murine hepatocytes, read-out: CLint mHep. As for the experimental part: (§1) Cryopreserved hepatocyte stability
(§2) Tested compounds (1 μM) were incubated with human cryopreserved hepatocytes (pool of 5) (IVT Celsis) and mouse cryopreserved hepatocytes (IVT Celsis). Hepatocytes (1, 0.5 or 0.25 x10^6 cells/mL, Williams’ Medium E (WME) with 4 mM L-glutamine and 2 mM magnesium sulphate) containing tested compound (final substrate concentration 1 μM; final DMSO concentration 0.25 %) were preincubated at 37 °C. The final incubation volume was 500 μl. 3 species-specific control compounds were included with each species. At 7 time points (0, 10, 20, 40, 60, 90, and 120 min), reactions were stopped by transferring 50 μl of the incubation mixture into 0.5 μM carbamazepine in cold acetonitrile. Tested compound concentrations were analyzed by LC-MS/MS and the resulting data were used to determine the half-life and intrinsic clearance of the compound in each species. […]

Data set [3] in a line: Cryopreserved hepatocyte stability, human. Type of data set: in vitro ADME. Particulars: cryopreserved hepatocytes, read-out: CLint hHep. As for the experimental part: as §1, §2
The target of data set [4] is T1, NAF-1 (Homo sapiens, UniProt Q8N5K1).
T1 construct: MitoNEET ([60]) and NAF-1 ([61]) cytosolic domains and MiNT ([62]) were purified from E. coli as previously published; made in house; host or cells: E. coli
T1 sequence (Q8N5K1 61-135 limits assumed): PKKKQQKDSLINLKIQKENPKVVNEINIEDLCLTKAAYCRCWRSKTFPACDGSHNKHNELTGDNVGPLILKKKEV
The experiment in a line: In vitro NEET [2Fe-2S] cluster release, NAF-1. Conditions: recombinant NAF-1, 37 °C, absorbance 460 nm. Type of data set: biochemical. As for the experimental part:
(§3) MitoNEET ([60]) and NAF-1 ([61]) cytosolic domains and MiNT ([62]) were purified from E. coli as previously published. Experiments were performed in 96-well plates at 37 °C with […] of Fe-S cluster in a buffer composed of 50 mM Tris-HCl pH 7 and 100 mM NaCl. dEF3122 was dissolved in dimethyl sulfoxide (DMSO) at 10 mM. CPEP31 was dissolved in PBS at 10 mM. After 20 min of incubation of the protein with the molecule, NEET cluster release was followed by measuring the absorbance at 460 and 800 nm over time using a plate reader (SpectraMax ID3). The absorbance at 460 nm was corrected for the variation of the baseline (absorbance at 800 nm) over time and normalized at 1 at the beginning of the kinetics.

Data set [5] in a line: Kinetic solubility. It counts as physicochemical. Conditions: PBS pH 7.4 buffer, pH 7.4, aqueous buffer, kinetic from dmso stock. As for the experimental part:
10 mM DMSO Stock solutions of tested compounds were distributed into filtration plate (Multiscreen Durapore 0.45µm) containing PBS pH 7.4 buffer to a final maximum concentration of 130 μM (1.3 % DMSO/buffer). Solutions or suspensions were shaken for 30 min at room temperature. The samples were filtered under vacuum into a collection plate and diluted 50 % with ACN for UV analysis. Quantification was performed against a Reference plate containing the same tested compounds fully solubilized in ACN/PBS buffer 1:1. Reference and Sample plates were analyzed by UPLC/UV-MS using a generic UPLC method. […]

The target in data set [6] is T2, MitoNEET (Homo sapiens, UniProt Q9NZ45).
T2 construct: MitoNEET ([60]) and NAF-1 ([61]) cytosolic domains and MiNT ([62]) were purified from E. coli as previously published; made in house; host or cells: E. coli
T2 sequence (Q9NZ45 32-108 limits assumed): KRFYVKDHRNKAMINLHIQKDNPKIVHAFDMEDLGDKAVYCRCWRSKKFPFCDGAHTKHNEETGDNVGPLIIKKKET
Kind of data set: In vitro NEET [2Fe-2S] cluster release, MitoNEET. It counts as biochemical. Particulars: recombinant MitoNEET, 37 °C, absorbance 460 nm. As for the experimental part:
as §3

Data set [7] can be described thus: Plasma protein binding by equilibrium dialysis, murine. Conditions: mouse, read-out: PPB (% bound). Type of data set: in vitro ADME. As for the experimental part: The free and bound fractions of the tested compounds in mouse and human plasma were determined by equilibrium dialysis using a 96-well Teflon dialysis unit (HTDialysis plate complete unit, HT Dialysis, USA). The HTDialysis plate complete unit consists of a 96-well plate with wells vertically bisected by a semipermeable membrane (membranes strips 12 to 14 kDa) creating two chambers. A 125 μL aliquot of plasma containing tested compound at 10 μM was placed on one side and 125 μL of Dulbecco‘s phosphate buffered saline (D-PBS) on the other. The plate was incubated at 37 °C for 6 hr under gentle agitation. Then, samples from both plasma and buffer compartment were analyzed by a LC-MS/MS method to measure the free fraction and the bound fraction to the plasma proteins. […]
For orientation: In equilibrium dialysis only unbound substance equilibrates across the membrane.

A short description of data set [8]: Microsomal stability, mouse liver microsomes. Type of data set: in vitro ADME. Particulars: male, CD-1, mouse, pH 7.4; murine liver microsomes; read-out: CLint mLM. As for the experimental part: Tested compounds (1 μM) were incubated with pooled human liver microsomes (Xenotech; pooled male and female) and pooled mouse liver microsomes (Xenotech; male CD-1 mice).
Microsomes (final protein concentrations of 0.25 and 0.5 mg/ml, 0.1 M phosphate buffer pH 7.4) containing tested compound (final substrate concentration 1 μM; final DMSO concentration 0.25 %) were preincubated at 37 °C prior to the addition of NADPH (final concentration 1 mM) to initiate the reaction. The final incubation volume was 200 μl. 3 species-specific control compounds were included with each species. At 5 time points (0, 5, 10, 20, and 40 min), reactions were stopped by transferring 50 μl of the incubation mixture into 0.5 μM carbamazepine in acetonitrile. Tested compound concentrations were analyzed by LC-MS/MS and the resulting data were used to determine the half-life and intrinsic clearance of the compound in each
In general terms: Microsomes from liver hold many membrane-bound enzymes, among them those of drug oxidation.

Regarding `O=C(Nc1scc(C2CCc3ccccc3C2)c1C(=O)O)c1ccccc1` (stereo not shown) [dEF3122], the highest concentration (Cmax) (usually the maximum level reached in the sampled fluid or tissue) in data set [1] (male, Swiss (CD-1), plasma, po 2 mg/kg (dose for AUC)) came out at 1600 ng/mL. In addition, the bioavailability (in general, the share of a dose that reaches the circulation, judged against a reference dose that is usually intravenous) in data set [1] (male, Swiss (CD-1), plasma, po 2 mg/kg, iv 0.25 mg/kg) turned out to be 36%. In addition, in data set [1] (po 2 mg/kg), the “plasma concentration reached after oral administration, molar equivalent” value came out at 2600 nM. Also, the hepatocyte CLint at 1 µM in data set [2] is less than 5 µL/min/1e6 cells; in data set [3], 19 µL/min/1e6 cells. The “interaction by [2Fe-2S] cluster release assay” value in data set [4] and in data set [6] was “validated the interaction” each time. For the same molecule, the kinetic solubility (commonly the concentration staying in solution when a stock, usually in DMSO, is diluted into the medium) at 30 min in data set [5] was less than 5 µM. Further, the fraction unbound at 6 h, 10 µM in data set [7] was found to be 0.001. For the same molecule, the microsomal CLint at 1 µM in data set [8] worked out at 24 µL/min/mg.
